Results as given in US20110263478A1, “SUR1 INHIBITORS FOR THERAPY” (priority 2008, published 2011).

How the values were obtained:
[1] = tested on: rAbcc8 promoter / NFκB consensus sequences; experiment: Luciferase reporter assay in HeLa cells; assay type: cell-based; conditions: 20 ng/ml
Method: Luciferase reporter assay. TNFα-stimulated activity of the promoter region of Abcc8 was determined using luciferase reporter plasmids as previously described. HeLa cells were transfected with luciferase reporter plasmids containing the rAbcc8 promoter (−3853 to +125) or four tandem NFκB consensus sequences (Clonetech, Mountain View, Calif.) using Lipofectamine-2000 (Invitrogen). Co-transfection of pRL-CMV, Renilla luciferase expression plasmid served as a control for transfection efficiency. The luciferase activity of cell extracts was determined using the Dual Luciferase system from Promega.

[2] = tested on: Abcc8 mRNA and SUR1 protein in bEnd.3 cells; experiment: TNFα exposure of bEnd.3 cells: RT-PCR and immunoblot for Abcc8 / SUR1; assay type: cell-based, murine; conditions: 6-hr exposure, 20 ng/ml
Method: Immunoblot. Lysates of inferomedial cortex, or of cultured bEnd.3 cells (ATCC, Monassas, Va.) that had been exposed to TNFα (20 ng/ml) for 6 hr, were prepared by homogenizing in RIPA lysis buffer. SUR1 was immunoisolated using a custom antibody raised against amino acids 598-965 (Protein Id, NP_037171) in rabbits by a commercial service (Covance, Denver, Pa.). This custom antibody was used to immunoisolate SUR1 using standard techniques, following which immunoisolated SUR1 was run on electrophoretic gels (NuPAGE® 4-12% Bis-Tris gels; Novex, Invitrogen, Carlsbad, Calif.). SUR1 was detected using the same custom antibody. Membranes were stripped and re-blotted for β-actin (1:5000; Sigma), which was used as a loading control. Detection was carried out using the ECL system (Amersham BioTBIences, Inc.) with routine imaging (Fuji LAS-3000) and quantification (Scion Image, Scion Corp, Frederick, Md.).
RT-PCR. bEnd.3 cells were exposed to TNFα (20 ng/ml) for 6 hr. RNA was extracted with TRIzol reagent (Invitrogen). RT-PCR was performed using Reverse Transcription System (Promega). The target transcript was reverse transcribed at RT for 10 min, then incubated at 42° C. for 15 min. The cDNA was amplified using 35 cycles under the following conditions: 94° C. for 30 sec; 57° C. for 45 sec; 72° C. for 45 sec. […] RT-PCR products (449 bp) were analyzed using 2.0% agarose/EtBr gel electrophoresis.

[3] = tested on: rats with spinal cord injury (SCI); experiment: Rat cervical SCI model: neurobehavioral assessment (inclined plane, paw placement, rearing); assay type: in vivo
Method: (§1) SCI injury model. This study was performed in accordance with the guidelines of the Institutional Animal Care and Use Committee. Adult female Long-Evans rats (275-350 gm) were anesthetized (Ketamine, 60 mg/kg plus Xylazine, 7.5 mg/kg, i.p.). The dura at C4-5 was exposed via a left hemilaminectomy. A hemi-cervical spinal cord contusion was created using a blunt force impactor (1.3-mm impactor head driven by a 10 gm weight dropped vertically 25 mm) (Soblo sky et al., 2001; Gensel et al., 2006). After SCI, animals were given 10 ml of glucose-free normal saline s.q. Rectal temperature was maintained at ˜37° C. using a servo-controlled warming blanket.
For in vivo gene suppression of SUR1, we used oligodeoxynucleotides that were phosphorothioated at 4 distal bonds to protect against endogenous nucleases (35).
Neurobehavioral assessment. All measurements were performed by blinded evaluators. Performance on the inclined plane was evaluated as described (Rivlin and Tator, 1977). To assess paw placement and vertical exploration (rearing) (Nikulina et al., 2004) animals were videotaped while in a translucent cylinder (19×20 cm). Rearing was quantified as the number of seconds spent with both front paws elevated above shoulder-height during a 3-min period of observation.

[4] = tested on: rats with spinal cord injury (SCI); experiment: Rat cervical SCI model: histology, capillaries and lesion size; assay type: in vivo; conditions: 7 d post-SCI
Method: as §1, with “blanket. Blood gases and serum glucose 10-15 min post-SCI were: pO2, 95±6 mm Hg; pCO2, 46±3 mm Hg; pH, 7.33±0.01; glucose 258±17 mg/dl in controls and pO2, 96±7 mm Hg; pCO2, 45±2 mm Hg; pH, 7.37±0.01; glucose 242±14 mg/dl in glibenclamide-treated animals.” for “blanket.”
(§2) Drug delivery. […] During the course of the project, slightly different formulations of drug were used, with the best results obtained using stock solutions made by placing 50 mg (or 25 mg) of drug into 10 ml DMSO, and infusion solutions made by placing 400 μl (or 800 μl) stock into 4.6 ml (or 4.2 ml) unbuffered saline (0.9% NaCl) and adjusting the pH to ˜8.5 using 0.1 N NaOH.
Lesion size. At 7 d post-SCI, cords were paraffin sectioned and stained with H&E. Lesion volumes were calculated from lesion areas measured on serial sections every 250 μm.
Immunohistochemistry. Cryosections were immunolabeled (Chen et al., 2003; Simard et al., 2006) using primary antibodies directed against SUR1 (Santa Cruz, C-16; 1:200; 1 h at RT, 48 h at 4° C.), SUR2 (Santa Cruz, H-80; 1:200; 1 h at RT, 48 h at 4° C.), GFAP (Sigma, C-9205; 1:500), and vimentin (Sigma, monoclonal CY3 conjugated; 1:100). Quantitative immunofluorescence was performed as described (Gerzanich et al., 2003).

[5] = molecular target: native and recombinant β-cell KATP channels (Homo sapiens, UniProt Q09428); conditions: read-out: IC50, block of β-cell KATP channels; cited from earlier work
[6] = tested on: rats with spinal cord injury (SCI); experiment: Rat cervical SCI model: hemorrhage / extravasated blood in cord; assay type: in vivo; conditions: 1 d post-SCI
Method: Constant infusion of a low-dose of drug was used to achieve sustained occupancy of only high-affinity receptors.
as §1, with “blanket. Blood gases and serum glucose 10-15 min post-SCI were: pO2, 95±6 mm Hg; pCO2, 46±3 mm Hg; pH, 7.33±0.01; glucose 258±17 mg/dl in controls and pO2, 96±7 mm Hg; pCO2, 45±2 mm Hg; pH, 7.37±0.01; glucose 242±14 mg/dl in glibenclamide-treated animals.” for “blanket.”
as §2
(§3) For in vivo gene suppression of SUR1, we used oligodeoxynucleotides that were phosphorothioated at 4 distal bonds to protect against endogenous nucleases (35). Within a few min of SCI, mini-osmotic pumps (Alzet 2002, 0.5 μl/h; Durect Corporation) with jugular vein catheters were implanted that delivered either scrambled sequence ODN (Scr-ODN) (5′-[…]-3′; SEQ ID NO:1) or antisense ODN (AS-ODN) (5′-[…]-3′; SEQ ID NO:2) (Yokoshiki et al., 1999) in PBS at a rate of 1 mg/rat/24 h.
Tissue blood. Rats were sacrificed at various times after SCI (n=5-11 rats/group), were perfused with heparinized saline to remove intravascular blood, and 5-mm segments of cord encompassing the lesion were homogenized and processed as described (Choudhri et al., 1997).

[7] = molecular target: T1, SUR-regulated channels (KATP / NCCa-ATP) in human aortic endothelial cells (Homo sapiens, UniProt Q09428); experiment: Nystatin-perforated patch clamp, diazoxide activation in endothelial cells cultured under normoxic or hypoxic conditions; assay type: cell-based; conditions: most endothelial cells cultured under hypoxic conditions
T1 construct: host or cells: human aortic endothelial cells, cultured under normoxic or hypoxic conditions
Method: (§4) Patch clamp of endothelial cells was performed using a nystatin-perforated patch technique, to maintain the metabolic integrity of the cells. The identity of the activated channel can be assessed by measurement of the “reversal potential”, the potential at which an ion channel current reverses from inward to outward. With physiologically relevant concentrations of ions intracellularly and extracellularly (high potassium inside, high sodium outside), the reversal potential can unambiguously distinguish between a K^+ channel current such as KATP, which reverses negative to −50 mV and a non-selective cation channel current such as NCCa-ATP, which reverses near 0 mV.
(§5) Cell culture. Endothelial cell cultures from human brain microvessels, human aorta (ScienCell Research Laboratories), and murine brain microvessels (bEnd.3; ATCC), were grown at low density using media and supplements recommended by suppliers.

[8] = tested on: SUR-regulated channels (KATP / NCCa-ATP) in human aortic endothelial cells; experiment: as above; assay type: cell-based; conditions: endothelial cells cultured under normoxic conditions
Method: as §4, §5

SUR1 [9] = experiment: SCI with i.v. ODN: SUR1 immunolabeling of cord; assay type: in vivo, rat
Text: For studies with SCI, AS-ODN and Scr-ODN were used that were phosphorothioated at 4 distal bonds to protect against endogenous nucleases (Galderisi et al., 1999), with ODN's administered i.v. starting immediately after injury. […] With Scr-ODN, the necrotic void beneath the impact site was surrounded by an SUR1-positive shell of tissue, similar to observations in untreated animals (FIG. 1a). With AS-ODN, however, only the small volume of tissue immediately beneath the impact site was labeled for SUR1, and no necrotic void was evident (FIG. 5c).
as §3
Immunohistochemistry. […] Quantitative immunofluorescence was performed as described (Gerzanich et al., 2003).

SUR1 [10] = experiment: Gliotic capsule model with ODN infusion: SUR1 Western blot and astrocyte patch clamp; assay type: in vivo, rat
Method: To validate the antisense strategy, it was first implemented in the model that was originally used for the discovery of the NCCa-ATP channel, wherein a gelatin sponge is implanted into the parietal lobe to stimulate formation of a gliotic capsule (Chen and Simard, 2001). Here, animals were also fitted with mini-osmotic pumps that delivered oligodeoxynucleotides (ODN), either antisense (AS) or scrambled (Scr), continuously for 7 d into the injury site.
SUR1 knock-down in astrocytes was performed in triplicates by implanting rats with gelatin sponges in the parietal lobe to induce formation of a gliotic capsule containing reactive astrocytes that express the SUR1-regulated NCCa-ATP channel (Chen and Simard, 2001; Chen et al., 2003). At the same time, they were implanted with mini-osmotic pumps (Alzet, model 2002; 14-day pump) placed in the dorsal thoracolumbar region that contained ODN (711 μg/ml delivered @ 0.5 μl/h, yielding 1500 picomoles/day), with the delivery catheter placed directly into the site of the gelatin sponge implant in the brain. Animals were infused with Src-ODN or AS-ODN, as above but not phosphorothioated. After 10-14 days, the gelatin sponge plus encapsulating gliotic tissues were harvested and processed either for Western immunoblots or to obtain fresh reactive astrocytes for patch clamp electrophysiology. […]

[11] = molecular target: SUR1-regulated NCCa-ATP channels (Rattus norvegicus, UniProt Q09429); conditions: read-out: EC50, block of SUR1-regulated NCCa-ATP channel; cited from earlier work
[12] = 1 d post-SCI, ODN i.v., vs Scr-ODN

SUR1-regulated NCCa-ATP channels, sequence (Q09429 whole entry): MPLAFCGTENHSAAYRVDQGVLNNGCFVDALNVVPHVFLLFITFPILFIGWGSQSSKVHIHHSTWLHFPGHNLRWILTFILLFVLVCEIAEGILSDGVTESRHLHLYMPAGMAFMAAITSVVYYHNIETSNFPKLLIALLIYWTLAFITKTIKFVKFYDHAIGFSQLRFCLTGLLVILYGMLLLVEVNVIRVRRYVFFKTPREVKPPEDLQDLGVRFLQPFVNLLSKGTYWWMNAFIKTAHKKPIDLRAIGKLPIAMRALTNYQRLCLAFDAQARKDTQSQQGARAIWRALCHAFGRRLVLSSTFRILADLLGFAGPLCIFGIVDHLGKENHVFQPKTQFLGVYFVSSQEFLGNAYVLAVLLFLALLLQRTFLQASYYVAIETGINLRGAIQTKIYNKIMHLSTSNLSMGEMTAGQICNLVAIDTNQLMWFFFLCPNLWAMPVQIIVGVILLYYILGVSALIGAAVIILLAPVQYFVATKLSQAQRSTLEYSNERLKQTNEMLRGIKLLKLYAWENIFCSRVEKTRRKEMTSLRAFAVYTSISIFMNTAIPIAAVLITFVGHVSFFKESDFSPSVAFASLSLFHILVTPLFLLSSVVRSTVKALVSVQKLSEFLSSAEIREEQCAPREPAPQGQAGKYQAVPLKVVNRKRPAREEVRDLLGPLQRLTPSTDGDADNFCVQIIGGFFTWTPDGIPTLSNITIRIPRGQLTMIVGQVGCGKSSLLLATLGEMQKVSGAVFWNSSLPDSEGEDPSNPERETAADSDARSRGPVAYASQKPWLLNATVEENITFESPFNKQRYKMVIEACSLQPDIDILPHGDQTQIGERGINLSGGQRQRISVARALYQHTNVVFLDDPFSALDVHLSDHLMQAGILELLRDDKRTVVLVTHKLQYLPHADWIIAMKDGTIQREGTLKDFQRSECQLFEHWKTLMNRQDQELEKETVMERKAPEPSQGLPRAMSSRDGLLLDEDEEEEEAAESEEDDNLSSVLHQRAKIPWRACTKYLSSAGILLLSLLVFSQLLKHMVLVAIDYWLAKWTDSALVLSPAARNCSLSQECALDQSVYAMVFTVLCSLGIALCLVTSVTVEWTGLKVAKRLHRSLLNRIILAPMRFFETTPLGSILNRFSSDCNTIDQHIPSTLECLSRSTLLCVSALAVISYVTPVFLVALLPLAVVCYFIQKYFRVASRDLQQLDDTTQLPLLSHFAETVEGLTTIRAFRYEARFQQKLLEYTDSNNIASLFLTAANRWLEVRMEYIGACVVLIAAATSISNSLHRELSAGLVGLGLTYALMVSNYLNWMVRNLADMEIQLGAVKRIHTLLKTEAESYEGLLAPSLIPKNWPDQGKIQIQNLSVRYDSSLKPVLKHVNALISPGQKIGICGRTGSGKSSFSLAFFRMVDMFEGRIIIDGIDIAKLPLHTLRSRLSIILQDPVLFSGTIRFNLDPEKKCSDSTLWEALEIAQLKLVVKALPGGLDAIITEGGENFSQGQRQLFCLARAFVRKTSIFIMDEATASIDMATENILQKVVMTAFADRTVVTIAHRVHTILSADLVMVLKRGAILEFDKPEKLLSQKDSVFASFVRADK
SUR1-regulated NCCa-ATP channels, sequence (Q9ESQ5 whole entry partner): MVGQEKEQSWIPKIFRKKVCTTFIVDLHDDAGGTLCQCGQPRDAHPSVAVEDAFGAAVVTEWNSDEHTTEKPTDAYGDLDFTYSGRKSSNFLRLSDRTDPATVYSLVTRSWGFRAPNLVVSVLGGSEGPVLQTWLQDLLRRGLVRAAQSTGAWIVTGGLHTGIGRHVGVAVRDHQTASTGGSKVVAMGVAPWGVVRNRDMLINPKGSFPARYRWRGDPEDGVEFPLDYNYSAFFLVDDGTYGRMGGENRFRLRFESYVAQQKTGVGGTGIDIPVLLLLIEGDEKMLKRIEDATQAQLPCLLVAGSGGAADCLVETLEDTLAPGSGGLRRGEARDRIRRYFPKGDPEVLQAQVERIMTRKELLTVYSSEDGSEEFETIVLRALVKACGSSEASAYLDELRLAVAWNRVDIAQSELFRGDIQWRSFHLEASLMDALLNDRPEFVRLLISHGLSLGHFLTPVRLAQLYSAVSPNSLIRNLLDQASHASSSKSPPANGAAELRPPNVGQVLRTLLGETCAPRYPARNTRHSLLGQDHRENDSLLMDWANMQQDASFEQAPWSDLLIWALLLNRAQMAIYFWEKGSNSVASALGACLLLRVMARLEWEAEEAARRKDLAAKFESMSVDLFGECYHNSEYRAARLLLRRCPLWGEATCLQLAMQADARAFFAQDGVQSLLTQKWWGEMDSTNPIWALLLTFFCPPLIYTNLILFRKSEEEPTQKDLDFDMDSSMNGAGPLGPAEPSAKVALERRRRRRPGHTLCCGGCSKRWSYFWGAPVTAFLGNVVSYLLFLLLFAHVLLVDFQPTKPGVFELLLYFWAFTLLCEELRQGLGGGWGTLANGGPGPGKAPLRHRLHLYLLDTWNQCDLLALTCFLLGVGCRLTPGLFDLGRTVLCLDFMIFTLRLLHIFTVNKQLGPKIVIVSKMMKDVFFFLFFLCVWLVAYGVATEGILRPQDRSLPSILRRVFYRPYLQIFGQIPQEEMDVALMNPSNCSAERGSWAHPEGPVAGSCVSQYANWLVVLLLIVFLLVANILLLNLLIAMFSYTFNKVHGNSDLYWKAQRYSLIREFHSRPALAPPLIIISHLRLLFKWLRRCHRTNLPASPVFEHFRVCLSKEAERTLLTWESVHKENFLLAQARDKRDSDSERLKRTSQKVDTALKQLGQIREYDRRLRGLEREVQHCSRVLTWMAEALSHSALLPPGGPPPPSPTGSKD
native and recombinant β-cell KATP channels, sequence (Q09428 whole entry): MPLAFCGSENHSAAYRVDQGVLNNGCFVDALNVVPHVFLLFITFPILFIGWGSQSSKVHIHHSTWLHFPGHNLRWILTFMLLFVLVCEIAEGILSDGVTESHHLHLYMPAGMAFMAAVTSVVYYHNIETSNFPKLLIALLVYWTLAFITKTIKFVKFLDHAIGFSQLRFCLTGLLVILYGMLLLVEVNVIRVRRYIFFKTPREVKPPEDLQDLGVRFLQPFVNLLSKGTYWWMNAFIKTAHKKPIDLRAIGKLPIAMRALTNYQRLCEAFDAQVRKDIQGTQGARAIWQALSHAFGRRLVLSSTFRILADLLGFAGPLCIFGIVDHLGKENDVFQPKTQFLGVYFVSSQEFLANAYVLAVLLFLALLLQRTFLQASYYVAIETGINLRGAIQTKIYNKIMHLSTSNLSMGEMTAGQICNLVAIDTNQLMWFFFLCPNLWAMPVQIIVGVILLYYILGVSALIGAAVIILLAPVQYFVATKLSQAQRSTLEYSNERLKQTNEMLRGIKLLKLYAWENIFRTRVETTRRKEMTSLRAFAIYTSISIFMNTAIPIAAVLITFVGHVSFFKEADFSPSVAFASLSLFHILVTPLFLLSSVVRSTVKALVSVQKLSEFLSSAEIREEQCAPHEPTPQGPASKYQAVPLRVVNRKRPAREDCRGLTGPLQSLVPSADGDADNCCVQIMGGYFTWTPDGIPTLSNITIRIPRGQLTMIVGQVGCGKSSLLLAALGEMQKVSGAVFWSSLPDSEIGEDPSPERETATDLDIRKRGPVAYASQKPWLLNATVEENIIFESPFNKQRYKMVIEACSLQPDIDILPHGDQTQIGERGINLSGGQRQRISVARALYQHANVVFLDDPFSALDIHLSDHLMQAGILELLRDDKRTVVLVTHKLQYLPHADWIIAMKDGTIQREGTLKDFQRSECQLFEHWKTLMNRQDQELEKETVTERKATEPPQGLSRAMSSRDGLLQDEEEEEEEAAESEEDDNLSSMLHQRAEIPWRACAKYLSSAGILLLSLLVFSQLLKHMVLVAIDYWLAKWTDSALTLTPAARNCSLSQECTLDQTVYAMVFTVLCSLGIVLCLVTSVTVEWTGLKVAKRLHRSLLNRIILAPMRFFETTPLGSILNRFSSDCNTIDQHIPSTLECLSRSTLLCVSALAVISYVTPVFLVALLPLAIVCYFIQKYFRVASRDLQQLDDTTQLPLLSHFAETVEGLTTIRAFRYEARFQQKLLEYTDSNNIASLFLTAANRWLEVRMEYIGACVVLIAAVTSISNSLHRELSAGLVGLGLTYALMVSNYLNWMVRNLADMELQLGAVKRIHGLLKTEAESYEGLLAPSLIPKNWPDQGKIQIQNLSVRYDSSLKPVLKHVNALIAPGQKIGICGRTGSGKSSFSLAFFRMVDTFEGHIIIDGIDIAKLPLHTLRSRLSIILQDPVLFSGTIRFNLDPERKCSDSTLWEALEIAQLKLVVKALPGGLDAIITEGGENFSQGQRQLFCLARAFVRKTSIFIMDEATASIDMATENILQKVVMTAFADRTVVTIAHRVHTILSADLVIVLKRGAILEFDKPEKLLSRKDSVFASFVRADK
native and recombinant β-cell KATP channels, sequence (Q14654 whole entry partner): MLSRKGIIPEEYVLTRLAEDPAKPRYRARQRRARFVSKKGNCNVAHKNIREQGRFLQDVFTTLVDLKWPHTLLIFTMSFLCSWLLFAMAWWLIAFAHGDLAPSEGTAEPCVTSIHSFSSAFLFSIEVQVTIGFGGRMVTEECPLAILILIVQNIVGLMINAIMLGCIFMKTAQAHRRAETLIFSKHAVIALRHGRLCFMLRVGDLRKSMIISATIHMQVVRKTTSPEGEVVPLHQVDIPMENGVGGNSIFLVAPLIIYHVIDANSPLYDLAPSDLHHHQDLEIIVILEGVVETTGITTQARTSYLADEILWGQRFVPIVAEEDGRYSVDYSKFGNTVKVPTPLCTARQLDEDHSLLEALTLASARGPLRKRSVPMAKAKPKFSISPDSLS
T1 sequence (Q09428 whole entry): as the sequence (Q09428 whole entry) above

TNFα
activity of rAbcc8 promoter, increase [1]: ~2 fold
luciferase activity driven by NFκB binding sites, stimulation [1]: ~2.3 fold
Abcc8 mRNA and SUR1 protein [2]: both increased

CCOc1cc(CC(=O)N[C@@H](CC(C)C)c2ccccc2N2CCCCC2)ccc1C(=O)O [repaglinide]
vertical exploration (rearing), time during 3-min observation ([3]; 1 d post-SCI, 200 ng/h s.q.): 27 ± 6 s
inclined plane, head down ([3]; post-SCI, vehicle 29±4, P=0.03): 47±3 degrees
inclined plane, head up ([3]; post-SCI, vehicle 40±4, P=0.01): 62±2 degrees
lesion volume, reduction compared to controls [4]: 3 fold
IC50 [5]: 0.9 to 7 nM
blood in cord homogenates ([6]; vehicle 1.8±0.2, P<0.01): 1.2 ± 0.1 µL

CC1=NS(=O)(=O)c2cc(Cl)ccc2N1 [diazoxide]
whole-cell current response to diazoxide [7]: activated an ohmic current that reversed near 0 mV
whole-cell current response to diazoxide [8]: either had no effect or, in half of the cells, activated an outwardly rectifying current that reversed at potentials more negative than −50 mV

5′-GGCCGAGTGGTTCTCGGT-3′ (DNA, backbone not given here; phosphorothioate at four distal bonds) [AS-ODN]
performance on inclined plane [3, 12]: significantly better performance
vertical exploration [3, 12]: significantly better performance
lesion volume, reduction compared to controls [4]: 3 fold
immunolabeling for SUR1 in cord (SUR1 [9]; 6 h post-SCI, ODN i.v. 1 mg/rat/24 h, vs controls): significantly less immunolabeling for SUR1
normal expression of SUR1 in dorsal horn cells (SUR1 [9]; post-SCI, ODN i.v.): did not affect
SUR1 protein in gliotic capsule (Western blot) (SUR1 [10]; ODN infused into injury site, vs Scr-ODN): significant reduction in SUR1 protein
depolarization of gliotic capsule astrocytes on ATP depletion by Na azide (SUR1 [10]; vs Scr-ODN (rapidly depolarized)): depolarized only slightly or not at all
blood in cord homogenates ([6]; ODN i.v., vs Scr-ODN): reduced blood in cord homogenates

Nc1ncnc2c1ncn2[C@@H]1O[C@H](COP(=O)(O)OP(=O)(O)OP(=O)(O)O)[C@@H](O)[C@H]1O [ATP]
EC50 [11]: 790 nM
